In publication PMC3912015, “Synthetic Multivalent Antifungal Peptides Effective against Fungi” (PLoS ONE, 2014):
In brackets after ≈: the same amount, converted by molar mass. Like-named read-outs stand apart in the source and are kept apart here. Bridge positions count the residues as written; N and C are the ends. Peptide text beside a SMILES is read from it. I, II: the chains in the order shown.

Tests used:
C. albicans ATCC10231 = assay: microbe, parasite or virus in culture; type: cell-based; conditions: ATCC10231, 48 h; read-out: MIC in µM against Ca 10231
Experimental: (§1) The yeast strains were cultivated and suspended in Sabouraud’s Dextrose (SD) broth diluted to one sixth at a starting OD600 = ∼0.08 in a flat-bottomed microtitre plate. A serial dilution of peptide in the same broth was mixed with the inoculum to give a final peptide concentration of 0.4–22 µM. The antifungal activity was assessed by monitoring the OD600 in cycles of 30 minutes and an orbital shaking at 100 rpm using an Infinite M200 microplate reader (Tecan Group Ltd., Switzerland) for 24/48 h at 37°C. Cultures without peptides were used as positive controls and broth alone or with 22 µM peptide served as negative controls. The minimum concentration required for complete inhibition was assessed by both visible observations as well as by measuring the OD600 and taken as the MIC. Each experiment was repeated in triplicates. For studying the effects of metal ions, SD broth was adjusted with appropriate concentrations of salts to yield a final concentration of 100 and 135 mM for NaCl and KCl and 0.5–2 mM for CaCl2 and MgCl2. MIC determinations were carried out as described above. C. albicans ATCC10231 cells and salts in broth were taken as a positive control. Salts alone (NaCl, KCl, and CaCl2 and MgCl2) in broth or with 22 µM peptide served as a negative control. The effect of 5% human serum on the activities of B4010 against two C. albicans clinical isolates was determined. The human male serum was centrifuged at 13,000 rpm for 10 mins in order to remove the lipids and the supernatant was collected. The MIC values against clinical isolates of C. albicans 2672R and C. albicans 1976R were determined both in standard medium (SD broth) as well as in standard medium containing 5% serum supernatant as before.

C. albicans ATCC2091 = assay: microbe, parasite or virus in culture; type: cell-based; conditions: ATCC2091, 48 h
Experimental: as §1

C. albicans ATCC24433 = assay: microbe, parasite or virus in culture; type: cell-based; conditions: ATCC24433, 48 h
Experimental: as §1

C. albicans DF1976R = assay: microbe, parasite or virus in culture; type: cell-based; conditions: DF1976R, 48 h; read-out: MIC in µM against Ca DF1976R
Experimental: as §1

C. albicans DF2672R = assay: microbe, parasite or virus in culture; type: cell-based; conditions: DF2672R, 48 h; read-out: MIC in µM against Ca 2672R
Experimental: as §1

F. solani ATCC36031 = assay: microbe, parasite or virus in culture; type: cell-based; conditions: ATCC36031, 48 h
F. solani DM3782 = assay: microbe, parasite or virus in culture; type: cell-based; conditions: 48 h
F. solani DF1500 = assay: microbe, parasite or virus in culture; type: cell-based; conditions: 48 h
[1] = test system: clinical isolates of C. albicans 2672R and C. albicans 1976R; assay: MIC against two clinical isolates, with or without 5% human serum; type: cell-based; conditions: 48 h
Experimental: as §1

[2] = Intact peptide after trypsin incubation (mass spectrometry); type: in vitro ADME; conditions: 6 h incubation with trypsin
Experimental: For all the experiments, unless otherwise stated, C. albicans ATCC 10231 strain was used. B4010 (1 mg/mL) was incubated with trypsin (enzyme:peptide ratio 1∶100) at 37°C. 20 µL aliquot of this mixture was withdrawn at various time intervals (0.5, 1, 2, 4 and 6 h) and mixed with 1 µL of trypsin inhibitor. The antifungal activity of the peptide was determined by adding this mixture to 180 µL of inoculum and monitoring the growth at OD600 for 24 h. Similar experiments performed in the presence of trypsin/trypsin inhibitor (without B4010) were used as a positive control. For assessing the antifungal activity in TF, the peptide was dissolved in freshly collected rabbit TF and incubated at 37°C for 6 h. After incubation, an equal volume of an overnight culture of C. albicans (∼10^6 CFU/mL) was mixed with peptides in tear fluid and incubated at 37°C for 24 h. The final concentrations of the peptide were at 4.4, 8.8 and 22 µM. A 100 µL aliquot of serial dilutions (10^2 or 10^3 times) of this mixture were inoculated on a SD agar plate and then incubated for 48 h at 37°C. Culture alone and culture with 50% tear fluid served as the positive control. The data was expressed in % killing with respect to culture without tear fluid.
Supplementary file pone.0087730.s002.tif: Figure S2 Positive charge electrospray ionization mass spectrometry of B4010 after incubation with trypsin (enzyme:B4010 = 1∶100). […]

Haemolytic assay = type: cell-based; conditions: rabbit red blood cells, 440 µM, 4% rabbit erythrocytes, read-out: haemolysis
Experimental: Haemolytic activity of peptides and antifungal drugs were determined against rabbit red blood cells. Briefly, serial dilution of peptides/antifungals in PBS was mixed with rRBC (final concentration 4% v/v), incubated at 37°C for 1 h and centrifuged at 3000 rpm for 10 minutes. The release of hemoglobin in the supernatant was monitored by measuring the hemoglobin absorbance at 576 nm. The readings from cell suspension in PBS (without any additives) or 1% Triton-X100 were used as 0% or 100% haemolysis.

C57BL6 wild type mice = assay: In vivo acute toxicity
Experimental: Acute toxicity of B4010 was assessed with C57BL6 (6–8 weeks old) wild type mice. Two healthy wild type mice were chosen for each routes of administration. B4010 was delivered through intra-peritoneal (200 mg/kg) or (100 mg/kg) intra-venous routes. Two animals were used for each administration and monitored through 24/48 h to determine mortality, or signs of toxicity.

Work on `CC(C)[C@H](NC(=O)[C@H](CCCCN)NC(=O)[C@H](CCCNC(=N)N)NC(=O)CNC(=O)[C@@H](N)CCCNC(=N)N)C(=O)N[C@H](C(=O)N[C@@H](CCCNC(=N)N)C(=O)N[C@@H](CCCNC(=N)N)C(=O)NCCCC[C@H](NC(=O)[C@H](CCCNC(=N)N)NC(=O)[C@H](CCCNC(=N)N)NC(=O)[C@@H](NC(=O)[C@@H](NC(=O)[C@H](CCCCN)NC(=O)[C@H](CCCNC(=N)N)NC(=O)CNC(=O)[C@@H](N)CCCNC(=N)N)C(C)C)C(C)C)C(=O)NCCCC[C@H](NC(=O)[C@H](CCCCNC(=O)[C@H](CCCNC(=N)N)NC(=O)[C@H](CCCNC(=N)N)NC(=O)[C@@H](NC(=O)[C@@H](NC(=O)[C@H](CCCCN)NC(=O)[C@H](CCCNC(=N)N)NC(=O)CNC(=O)[C@@H](N)CCCNC(=N)N)C(C)C)C(C)C)NC(=O)[C@H](CCCNC(=N)N)NC(=O)[C@H](CCCNC(=N)N)NC(=O)[C@@H](NC(=O)[C@@H](NC(=O)[C@H](CCCCN)NC(=O)[C@H](CCCNC(=N)N)NC(=O)CNC(=O)[C@@H](N)CCCNC(=N)N)C(C)C)C(C)C)C(=O)N[C@@H](CCCCN)C(=O)O)C(C)C` [B4010] (I: H-RGRKVVRRKKK-OH / II: H-RGRKVVRRK / III: H-RGRKVVRR / IV: H-RGRKVVRR; amide I:9-IV:C, I:10-II:C, II:9-III:C; N-terminus and C-terminus assumed) yielded an MIC (C. albicans ATCC10231) of 1.4 µM (≈ 6.39 µg/mL), an MIC (C. albicans ATCC2091; read-out: MIC) of 0.7 µM (≈ 3.19 µg/mL) and an MIC (C. albicans ATCC2091; read-out: MIC in µM against Ca 2091) of 0.7 µM (≈ 3.19 µg/mL). It also gave an MIC (C. albicans ATCC24433; read-out: MIC) of 1.4 µM (≈ 6.39 µg/mL), an MIC (C. albicans ATCC24433; read-out: MIC in µM against Ca 24433) of 1.4 µM (≈ 6.39 µg/mL) and an MIC (C. albicans DF1976R) of 0.37 µM (≈ 1.69 µg/mL). It also gave an MIC (C. albicans DF2672R) of 0.37 µM (≈ 1.69 µg/mL), an MIC (F. solani ATCC36031) of 1.4 µM (≈ 6.39 µg/mL) and an MIC (F. solani DM3782) of 1.4 µM (≈ 6.39 µg/mL). For the same compound, the MIC (F. solani DF1500) was 1.4 µM (≈ 6.39 µg/mL), the MIC [1] was 0.37 µM (≈ 1.69 µg/mL) and the remaining at 6 h, 1 mg/mL [2] was roughly 20%. For the same compound, the hemolysis at 1 h, 440 µM (Haemolytic assay) was less than 1%, the acute toxicity (C57BL6 wild type mice; IP 200 mg/kg) was “no sign of mortality, morbidity or toxicity” and the acute toxicity (C57BL6 wild type mice; IV 100 mg/kg) was “no sign of mortality, morbidity or toxicity”.
